Laboratory results taken from a melting point compilation (Tetko et al.; mined from patent text by program, amines drawn as free bases though some values may be those of a salt).

Row | Compound | melting point
1 | O=S1N=C(NCCCOc2cccc(CN3CCCCC3)c2)C(NCc2cccnc2)=N1 (stereo not drawn) | 140 to 143 °C
2 | O=Cc1ccc(-c2nn(Cc3ccccc3)c3ccccc23)o1 | 108 °C
3 | CCOC(=O)c1cccc2c1CCc1cc(O)ccc1S2 | 125 to 129 °C
4 | Fc1ccc(Cl)c2ncccc12 | 74 to 76 °C
5 | COc1ccc(F)cc1-c1cccc(-n2cnc(-c3nc(C)no3)c2)c1 | 153 to 158 °C
6 | Cc1cccc(C(=O)c2[nH]c3cc(Cl)ccc3c2NC(=O)N(C)C)c1 | 198 to 200 °C
7 | O=C1CC(c2ccc(F)cc2)CC(=O)O1 | 99 to 104 °C
8 | CC1(C)Oc2ccc(C#N)cc2C(Oc2ccnnc2)C1(C)O (stereo not drawn) | 103 to 105 °C
9 | NC(=O)c1c[nH]c2ccc([N+](=O)[O-])cc12 | 284 to 288 °C
10 | Cc1oc(-c2ccc(F)cc2)cc1C(=O)Nc1cccc(CSCC(=O)O)c1 | 198 to 199 °C
11 | COCC(C)n1nc(-c2cnc(N)nc2-c2ccccc2)ccc1=O (stereo not drawn) | 180 to 181 °C
12 | COC(=O)C(=COC(F)F)c1ccccc1CBr | 63 to 67 °C
13 | NCC1CCN(CC(=O)Nc2cccc3c2C(=O)c2c-3n[nH]c2-c2ccc(N3CCOCC3)cc2)CC1 | 240 °C
14 | CCOC(=O)C=C(C)C=CC=C(C)C=Cc1c(C)cc(OC)c(C)c1Cl | 106 to 107 °C
15 | CCCOc1ncc(N(C)C)cc1-c1nc2c(CCC)nn(C)c2c(=O)[nH]1 | 162 °C
16 | CCCN(C(C)C)C1COc2cccc(C(=O)NC(C)C)c2C1 (stereo not drawn) | 124 °C
17 | Nc1nc(N)c2cc(Cc3ccc(F)cc3)ccc2n1 | 214 to 216 °C
18 | O=[N+]([O-])c1oc2ccc(CCO)cc2c1-c1ccc(CO)cc1 | 135 to 137 °C
19 | CC(C)(C)[C@H]1CC[C@@H](Nc2ncnc(I)c2Cl)CC1 | 89 to 90 °C
20 | COC(=O)CSC1c2ccccc2C=Cc2ccccc21 | 74 to 76 °C
21 | Cc1c(C)c2c(c(C)c1N)CC(C)(CN1CCOCC1)O2 (stereo not drawn) | 114 to 115 °C
22 | COC(=O)NC1Cc2ccc([N+](=O)[O-])cc2C1O (stereo not drawn) | 201 to 203 °C
23 | O=C(Nc1ccccc1)C(Br)(Br)Br | 97 to 98 °C
24 | O=C(O)c1cc(Cl)cc2c1NCCO2 | 209 to 210 °C
25 | CN(CC1CC=CCC1)c1ncnc2c1ncn2C1OC(CO)C(O)C1O (stereo not drawn) | 154 to 156 °C
26 | CC[C@H](C1CC1)n1cc(Cl)nc(N2CCc3cc(OC)cc(Cl)c32)c1=O | 118 to 120 °C

Row | Compound | melting point
27 | N#Cc1c(N2CCCCC2)cc(-c2cccc3ccccc23)c2c1C(=O)c1ccccc1-2 | 202 to 204 °C
28 | Cc1oc(-c2ccccc2)nc1COc1ccc(COc2nn(-c3ccccc3)cc2CO)cc1 | 118 to 119 °C
29 | COc1ccc2c(c1)CNc1cc(Cl)ccc1O2 | 111 to 113 °C
30 | O=C1CN(CCC(O)C2CCCCC2)C(=O)N1 (stereo not drawn) | 97 to 99 °C
31 | CC(C)(C)NC(=O)[C@@H]1CCCN1C(=O)[C@@H](O)[C@H](Cc1ccccc1)NC(=O)[C@H](CC(N)=O)NC(=O)COc1ccccc1N | 107 to 114 °C
32 | O=C(CCCN1CCCCC1)c1ccc2c(c1)Cc1cc(C(=O)CCCN3CCCCC3)ccc1-2 | 157 to 159 °C
33 | O=C1CCC(c2c[nH]c3ccccc23)CC1 | 123 to 125 °C
34 | CN(C(=O)COc1cc(-c2ccccc2)nc2ccccc12)c1ccccc1 | 150 °C
35 | COc1ccc(-c2nc(CC(=O)Cc3ccc(OC(C)=O)c(OC(C)=O)c3)cs2)cc1OC | 128 °C
36 | c1ccc2c(c1)cnn2N1CCNCC1 | 153 °C
37 | COc1cccc2c1CC(C(=O)O)N2C(=O)OC(C)(C)C (stereo not drawn) | 148 to 150 °C
38 | CC(=O)Nc1ccc(S(=O)(=O)C/C=C2/CN3C(=O)C[C@H]3O2)cc1 | 110 to 111 °C
39 | CC(C)(C)[Si](C)(C)Oc1cccc(C(O)C(c2ccccc2)C2SCCCS2)c1 (stereo not drawn) | 75 to 76 °C
40 | Nc1ccc2c(c1)C(=O)CC2 | 168 to 171 °C
41 | CC(C)(C)OC(=O)COC1CCN(C(=O)CC(=O)Nc2ccc(C(N)=NO)cc2)CC1 | 161 to 163 °C
42 | CCOC(=O)C(C#N)c1cn(C(=O)OCC)c2cc(Cl)ccc12 (stereo not drawn) | 126 to 128 °C
43 | COc1ccc(C2(CCO)CCN(C(=O)c3cc(OC)c(OC)c(OC)c3)C2)cc1OC (stereo not drawn) | 60 to 62 °C
44 | CCOC(=O)CCCNc1cccc(/C=C/c2nc3ccccc3s2)c1 | 68 to 69 °C
45 | CCCCCCCCCCCCCCCCS(=O)(=O)Nc1cccc(C(=O)CBr)c1 | 92 to 95 °C
46 | O=C1N(Cc2ccc3ncnn3c2)c2ccccc2C12COc1cc3c(cc12)OCCO3 (stereo not drawn) | 207 to 209 °C
47 | CCOC(=O)N1CCc2nc3c(C(F)(F)F)cccc3c(C)c2CC1 | 136 °C
48 | Cn1nc2ccc(NCCCN3CCC(OC(c4ccccc4)c4ccccc4)CC3)nn2c1=O | 171 to 172 °C
49 | Clc1ccc(-c2cc(C3CCN(Cc4ccc5ccccc5c4)CC3)n[nH]2)cc1 | 180 to 181 °C
50 | COC(=O)c1ccc(OCC2CC(=O)N(c3ccc(OCCO)cc3)C2)cc1 (stereo not drawn) | 129 to 131 °C
51 | CC(C)Cc1ccc([N+](=O)[O-])cc1C#N | 73 °C
52 | CCc1ccc(NCc2cc(OC)c(OC)c(OC)c2)cc1 | 64 to 66 °C

Row | Compound | melting point
53 | CCNc1nc(C(F)(F)F)nc(NCC)c1[N+](=O)[O-] | 60 to 65 °C
54 | CCCCc1ncc(/C=C(\Cc2cccs2)C(=O)O)n1Cc1ccc(OCC(=O)O)cc1 | 192 to 194 °C
55 | Cc1c(CO)ncnc1N(C)C | 46 to 48 °C
56 | COC(=O)c1cc(O)cc(Cl)c1 | 133 to 135 °C
57 | COc1ccc(Cn2c3ncnc4c(ncn4Cc4ccc(OC)cc4)c-3nc2=O)cc1 | 175 to 177 °C
58 | COc1ccc(N2CCN(c3c(C)c(C)c4c(c3C)CC3(CCOCC3)O4)CC2)cc1 | 153 to 155 °C
59 | CNc1cccc(N)c1C(N)=O | 130 to 132 °C
60 | COc1cc(C)cc(-c2nn(CC#N)cc2-c2cc(NC[C@H](C)O)nc(-c3cccnc3)n2)c1 | 200 °C
61 | CC(=O)Nc1cnc(-c2ccccc2)c(-c2ccc(=O)n(C(C)C)n2)c1 | 207 to 208 °C
62 | Nc1nc(F)nc(OC(F)(F)F)n1 | 138 to 139 °C
63 | CCOC(=S)c1ccc2scc(C)c2c1 | 67 to 69 °C
64 | O=S1(=O)c2ccccc2C(c2ccccc2)N1CCN1CCC(Cc2c[nH]c3ccc(F)cc23)CC1 (stereo not drawn) | 175 °C
65 | CCCCn1c(=O)c2cc(C(=O)OCC)cn2c2cc(Cl)ccc21 | 172 to 174 °C
66 | Cc1cc(C)c(C(CO)c2ccc(C(C)C)cc2)c(O)c1C (stereo not drawn) | 101 to 102 °C
67 | O=C1CC(c2cccc(-n3ccnc3)c2)=Nc2ccc(-c3ccccc3)cc2N1 | 201 to 205 °C
68 | COC(=O)C1=C(C)NC(C)=C(C(=O)OCCN2CCN(c3ccc(F)cc3)CC2)C1c1cccc(Cl)c1 (stereo not drawn) | 44 to 49 °C
69 | Cc1nc(-c2cccc3nc(N[C@@H]4CCc5ccccc54)ccc23)no1 | 105 °C
70 | CC(C)(Cc1c[nH]c2ccccc12)NCC(O)COc1ccccc1C#N (stereo not drawn) | 120 to 123 °C
71 | FC(F)(F)C(c1ccccc1)(c1ccccc1)c1ccccc1 | 158 to 159 °C
72 | CC#CCOc1ccc(S(=O)(=O)NC2(C(=O)O)CCCCC2)cc1 | 112 to 114 °C
73 | COC(=O)N1CC(C(N)=O)C(c2ccc(OC)c(OC3CCCC3)c2)C1 (stereo not drawn) | 130 to 132 °C
74 | CCCOc1cc2ccccc2c2c(=O)c(-c3ccoc3)cn(C)c12 | 165 to 167 °C
75 | CCCCCCCCCCCCCCCCN1CCN(c2ccc(CCC(=O)O)cc2)CC1 | 218 to 220 °C
76 | CCCOCCN(C)c1ccc(-c2ccc3c(c2)C=C(C(=O)Nc2ccc(CN(C)C4CCOCC4)cc2)CCS3(=O)=O)cc1 | 193 to 194 °C
77 | Oc1ccccc1OCC1CCN(CC(O)COc2cccc3[nH]ccc23)CC1 (stereo not drawn) | 119 to 121 °C
78 | OC1CSC(Oc2cncc(-c3cc4ccccc4o3)c2)C(O)C1O (stereo not drawn) | 210 °C

Row | Compound | melting point
79 | Cn1nc(C(=O)NCC2(O)CN3CCC2CC3)c2ccccc21 (stereo not drawn) | 147 to 149 °C
80 | CCOC(=O)c1cc(CCCOc2c(C)cc(-c3noc(C)n3)cc2C)on1 | 95 to 96 °C
81 | CCc1cn(C2CC(O)C(CCCCc3ccccc3)O2)c(=O)[nH]c1=O (stereo not drawn) | 160 to 162 °C
82 | CCNc1ccc(NS(=O)(=O)c2ccc(C)cc2)c(C)c1 | 162 to 163 °C
83 | Cc1ccnn1-c1ccc(NC(=O)c2ccc(Cl)cc2)cc1 | 189 to 191 °C
84 | Cc1c(-c2ccncc2)[nH]c(-c2ccncc2)c1CO | 258 to 261 °C
85 | FC(F)(F)c1cccc(Nc2nc3ccccc3o2)c1 | 193 to 194 °C
86 | CC1(C)CCn2c(nc(-c3ccncc3)cc2=O)N1 | 345 to 347 °C
87 | CC(=O)OC1CC2CCC3C4CCC(C(C)=O)C4(C)CC(=O)C3C2(C)CC1Br (stereo not drawn) | 154 to 156 °C
88 | Cc1cc(-c2nc3ccccc3c(=O)[nH]2)cc(C)c1OCCO | 260 to 261 °C
89 | O=C(O)c1c(NCc2ccccc2)nc2ccc(Br)cc2c1Cl | 182 to 184 °C
90 | COc1ccc(S(=O)(=O)C(c2cc(F)ccc2F)c2cc(N)ncc2Cl)cc1 (stereo not drawn) | 153 to 155 °C
91 | CCCn1nc(C)c(C#N)c1N | 104 to 105 °C
92 | N#CNC(=NCCO[N+](=O)[O-])c1ccc(N)nc1 | 108 °C
93 | CC(C)(C)OC(=O)NCCON=C(C(=O)O)c1cccs1 | 113 to 114 °C
94 | C=C1C=Cc2cc(C(=O)O)ccc2OC1 | 188 °C
95 | CCCOC(=O)N=P(c1ccccc1)(c1ccccc1)c1ccccc1 | 90 to 91 °C
96 | COc1ccc(/C(C)=C/c2ccc(C(=O)OCc3ccccc3)cc2)cc1C12CC3CC(CC(C3)C1)C2 | 230 to 240 °C
97 | N#Cc1ccc(OCCNc2ccc(C(=O)O)cc2)c2ccccc12 | 254 to 256 °C
98 | CC(C)c1cccc(C(C)C)c1NC(=O)C(N)Cc1ccc(OCc2ccccc2)cc1 (stereo not drawn) | 117 to 122 °C
99 | O=COCc1ccc2c(c1)C(C(Cl)(Cl)Cl)OC(C(Cl)(Cl)Cl)O2 (stereo not drawn) | 75 to 77 °C
100 | Nc1ccccc1C(=O)c1ccc(Br)cc1 | 104 to 106 °C
101 | OCC1OC(n2cnc3c(NC4C=CCC4O)ncnc32)C(O)C1O (stereo not drawn) | 212 to 214 °C
102 | O=C(Nc1ccc(S(=O)(=O)C(F)(F)F)cc1)Nn1cnc2ccccc2c1=O | 118 to 121 °C
103 | CCOC(=O)c1cn(CCO)c2nc(N3CCN(C(=O)OCC)CC3)c(F)cc2c1=O | 215 to 217 °C
